Data on seven molecules can be found in PMC8570331, “8-Hydroxyquinoline-Amino Acid Hybrids and Their Half-Sandwich Rh and Ru Complexes: Synthesis, Anticancer Activities, Solution Chemistry and Interaction with Biomolecules” (International Journal of Molecular Sciences, 2021).

Like-named read-outs stand apart in the source and are kept apart here.

A short description of data set [1]: Proton dissociation constants of the ligands (pH-potentiometry, UV-vis, 1H NMR titrations). Format: physicochemical. The note with it: for pKa: aqueous solution, I = 0.2 M KNO3, T = 25.0 °C. On the procedure:
pH-potentiometric measurements were carried out at 25.0 ± 0.1 °C in water in the pH range between 2.0 and 11.5 and at a constant ionic strength of 0.2 M KNO3. The titrations were performed in a carbonate-free KOH solution (0.20 M). The exact concentrations of HNO3 and KOH solutions were determined by pH-potentiometric titrations. An Orion 710A pH-meter equipped with a Metrohm combined electrode (type 6.0234.100) and a Metrohm 665 Dosimat burette were used for the pH-potentiometric measurements. […] The average water ionization constant, pKw, was determined as 13.76 ± 0.01, which is in good agreement with the literature data. The initial volume of the samples was 5.0 mL. The ligand concentration was 1.75 or 2.0 mM. Samples were degassed by bubbling purified argon through them for about 10 min prior to the measurements, and the inert gas was also passed over the solutions during the titrations. The computer program Hyperquad2013 [46] was utilized to establish the stoichiometry of the species and to calculate the equilibrium constants, similarly to that performed in our previous works.
Agilent Cary 8454 diode array spectrophotometer was utilized to obtain UV-vis spectra in the wavelength range 190–1100 nm. The path length (ℓ) was 1 cm in most cases (the actual ℓ is always indicated in the legends of the figures). The concentrations of the ligands and complexes were between 88 and 240 µM. For HSA and ct-DNA containing samples, complex concentrations were 100 µM, and 0.5 and 2 equiv. biomolecule were added for kinetic studies, respectively. Individual samples contained 0–20 µM HSA and 0–1.75 mM (nucleotide) ct-DNA. Spectra were always background corrected. The computer program HypSpec was used to obtain stability constants.
Bruker Avance III HD Ascend 500 Plus instrument (Billerica, MA, USA) was used for NMR studies. ^1H NMR spectroscopic measurements were carried out with a WATERGATE water suppression pulse scheme in the presence of 10% (v/v) D2O in most cases. DSS internal standard was added to samples to obtain reference peaks. Complex concentrations were 0.5 mM or 1.0 mM, and 0.5 equiv. HSA was added. ^1H NMR titrations were carried out in the presence of 0.2 M KNO3. With the FHA model peptide, the measurements were performed at 0.5 or 1 mM metal complex concentrations, and 1:1, 1:2 or 2:1 peptide-to-metal complex ratios were applied. The computer program HypSpec was used to obtain stability constants.

Data set [2] concerns MRC-5 human lung fibroblast cell line. Nature of the data set: MTT cytotoxicity assay in MRC-5. The format is cell-based. The note with it: Homo sapiens, MRC5, 72 h incubation. The procedure:
(§1) The in vitro cytotoxic activity of the novel water-soluble amino acid derivatives of HQCl and their RhCp* and RuCym complexes was measured by the thiazolyl blue tetrazolium bromide (MTT) assay in two human colon adenocarcinoma cell lines (Colo-205 and Colo-320) and in one non-tumoral human lung fibroblast cell line (MRC-5). The results are given in terms of IC50 values (Table 1). Colo-205 is a drug-sensitive cell line with a normal ABCB1 transporter expression pattern, while Colo-320 is multidrug-resistant and overexpresses the ABCB1 system.
(§2) All cell culture reagents were obtained from Sigma-Aldrich and plasticware from Sarstedt (Nümbrecht, Germany). Human colonic Colo-205 doxorubicin-sensitive and Colo-320/MDR-LRP multidrug-resistant adenocarcinoma and MRC-5 human embryonal lung fibroblast cell lines were purchased from LGC Promochem, Teddington, UK. The colonic adenocarcinoma cells were cultured in Roswell Park Memorial Institute (RPMI) 1640 medium supplemented with 10% heat-inactivated fetal bovine serum, 2 mM L-glutamine, 1 mM sodium pyruvate and […]. The MRC-5 cell line was cultured in Eagle’s Minimal Essential Medium (EMEM, Sigma-Aldrich, St. Louis, MO, USA) supplemented with a non-essential amino acid (NEAA) mixture (Sigma-Aldrich, St. Louis, MO, USA) a selection of vitamins, 10% heat-inactivated foetal bovine serum (FBS), 2 mM L-glutamine (Sigma-Aldrich, St. Louis, MO, USA), 1 mM Na-pyruvate (Sigma-Aldrich, St. Louis, MO, USA), nystatin (Sigma-Aldrich, St. Louis, MO, USA) and a penicillin-streptomycin mixture (Sigma-Aldrich, St. Louis, MO, USA) in con-centrations of 100 U/L and 10 mg/L, respectively. The cells were incubated at 37 °C, in a 5% CO2, 95% air atmosphere. All cell lines were detached with Trypsin-Versene (EDTA) solution for 5 min at 37 °C.
(§3) The tested compounds were dissolved in 10% (v/v) DMSO/H2O using 4 mM concentration. Doxorubicin (Merck, Darmstadt, Germany) was used as a positive control. Then stock solutions were diluted in complete culture medium, and two-fold serial dilutions of compounds were prepared in 100 μL of the medium, horizontally. The semi-adherent colonic adenocarcinoma cells were treated with Trypsin-Versene (EDTA) solution. They were adjusted to a density of 1 × 10^4 cells in 100 μL of RPMI 1640 or EMEM medium and were added to each well, with the exception of the medium control wells. The final volume of the wells containing compounds and cells was 200 μL. The plates containing Colo-205, Colo-320 or MRC-5 cells were incubated at 37 °C for 72 h; at the end of the incubation period, 20 μL of MTT solution (from a stock solution of 5 mg/mL) were added to each well. After incubation at 37 °C for 4 h, 100 μL of SDS solution (10% in 0.01 M HCI) were added to each well, and the plates were further incubated at 37 °C overnight. […] The IC50 values were obtained from at least 3 independent experiments.
On the technique in general: Formazan colour is commonly taken as a measure of viable cells.

Data set [3] can be described thus: Distribution coefficients, shake-flask n-octanol/buffered aqueous solution. Format: physicochemical. As to conditions: pH 7.4, n-octanol/buffer, in 100 mM KCl, read-out: logD7.4. The procedure: It is worth noting that these amino acid hybrids have excellent water solubility due to their zwitterionic form, unlike most 8-hydroxyquinolines.
Distribution coefficients of the ligands as well as of the complexes were determined at pH = 7.4 using the traditional shake-flask method in n-octanol/buffered aqueous solution (20 mM phosphate) at different chloride ion concentrations (4, 24 and 100 mM) using UV-vis spectrophotometry for the analysis. The measurement and data evaluation were performed as described in our former work.

The test system of a further data set is Colo-205 cells. Nature of the data set: Annexin V-FITC / propidium iodide apoptosis induction assay, flow cytometry. Format: cell-based, human. The note with it: 3 h induction. The source says:
12H-Benzo[α]phenothiazine (M627) and cisplatin were used as positive controls. Annexin-V assay offers the possibility of detecting early phases of apoptosis. Apoptosis is a morphologically and biochemically distinct form of programmed cell death, which is the preferred mode of action for an anticancer compound. PI was used to distinguish between viable, early apoptotic and necrotic or late apoptotic cells. […] In order to better understand the different behavior of the studied compounds, an in-depth analysis of the various solution (physico-)chemical properties of the ligands and complexes were performed.
The assay was carried out using an Annexin V-FITC Apoptosis Detection Kit from Sigma-Aldrich according to the manufacturer’s instructions. The concentration of the Colo-205 cell suspension was adjusted to approximately 0.5 × 10^6 cells per mL in RPMI 1640 medium, and the cell suspension was distributed in 1 mL aliquots into a 24-well plate and then incubated overnight at 37 °C and 5% CO2. The next day, the medium was removed and replaced by 1 mL RPMI 1640 medium containing the compounds except for the control samples. […] After the incubation period, the samples were washed with PBS, and a fresh medium was added to the samples. The cells were incubated overnight at 37 °C and 5% CO2. The next day, 200 μL 0.25% Trypsin (Trypsin-Versen) was added to the samples until cells appeared detached, followed by the addition of 400 μL of medium supplemented with 10% bovine serum. The cells were collected in Eppendorf tubes and centrifuged at 2000× g for 2 min. The harvested cells were re-suspended in a fresh serum-free RPMI 1640 culture medium. After this step, the apoptosis assay was carried out according to the protocol of the kit. The fluorescence was analyzed immediately using a ParTec CyFlow flow cytometer (Partec GmbH, Münster, Germany).
In general terms: Flow cytometry measures light scatter and fluorescence of single cells or particles in a stream.

The test system of data set [4] is Colo-320 human colon adenocarcinoma cell line (multidrug-resistant). Nature of the data set: MTT cytotoxicity assay in Colo-320. The format is cell-based. As to conditions: Homo sapiens, COLO 320, 72 h incubation. On the procedure:
as §1, §2, §3

In data set [5] the test system is Colo-205 human colon adenocarcinoma cell line (doxorubicin-sensitive). Description: MTT cytotoxicity assay in Colo-205. The note with it: Homo sapiens, COLO 205, 72 h incubation. Format: cell-based. The procedure:
as §1, §2, §3

For data set [6], the target named is T1, HSA site II (subdomain IIIA) (Homo sapiens, UniProt P02768).
T1 construct: purchased Sigma-Aldrich A8763
T1 sequence (P02768 25-609): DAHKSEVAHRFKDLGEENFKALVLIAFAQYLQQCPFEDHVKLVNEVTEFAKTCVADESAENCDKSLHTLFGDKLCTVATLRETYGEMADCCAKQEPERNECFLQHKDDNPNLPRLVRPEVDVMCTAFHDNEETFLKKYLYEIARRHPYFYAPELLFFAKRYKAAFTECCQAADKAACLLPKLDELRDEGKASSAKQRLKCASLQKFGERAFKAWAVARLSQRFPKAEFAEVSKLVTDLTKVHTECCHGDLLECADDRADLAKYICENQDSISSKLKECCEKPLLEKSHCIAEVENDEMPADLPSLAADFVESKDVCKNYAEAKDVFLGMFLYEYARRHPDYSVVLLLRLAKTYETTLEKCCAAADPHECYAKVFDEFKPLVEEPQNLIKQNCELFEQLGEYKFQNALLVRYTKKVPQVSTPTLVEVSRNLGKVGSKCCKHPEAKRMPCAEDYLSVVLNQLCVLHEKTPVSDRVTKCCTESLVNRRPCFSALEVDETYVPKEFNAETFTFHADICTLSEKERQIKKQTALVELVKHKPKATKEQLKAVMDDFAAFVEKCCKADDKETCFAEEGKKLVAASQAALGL
Set-up: method as in PMID 34374386. The note with it: cited from earlier work.

Another data set concerns Ac-Ala–His–Ala-NH2 (AHA). Set-up: method as in PMID 34374386. The note with it: cited from earlier work.
On the set-up of data set [7]: method as in PMID 32500882. As to conditions: cited from earlier work.
Another data set deals with Ac-Phe–His–Ala-NH2 (FHA). Set-up: method as in PMID 34374386. The note with it: cited from earlier work.
Data set [8] deals with T2, HSA site I (subdomain IIA) (Homo sapiens, UniProt P02768).
T2 construct: purchased Sigma-Aldrich A8763
T2 sequence (P02768 25-609): as above
Set-up: method as in PMID 34374386. As to conditions: cited from earlier work.

In data set [9] the test system is Colo-205 human colon adenocarcinoma cell line (doxorubicin-sensitive). Set-up: method as in PMID 32500882. The note with it: cited from earlier work.
Details of data set [10]: method as in PMID 32500882. The note with it: cited from earlier work. The source holds these as a separate data set.
For data set [11], the system named is Colo-320 human colon adenocarcinoma cell line (multidrug-resistant). Set-up: method as in PMID 32500882. The note with it: cited from earlier work.

With `O=C(O)[C@H]1CCCN1Cc1cc(Cl)c2cccnc2c1O` [HQCl-D-Pro, (R)-5-chloro-7-((proline-1-yl)methyl)8-hydroxyquinoline], the pKa was more than 11 in [1] (1H NMR, read-out: pKa (NhPro/ProH+)); 2.32 ± 0.03 in data set [1] (1H NMR, read-out: pKa (NqH+)); 7.75 ± 0.02 in [1] (1H NMR, read-out: pKa (OH)); more than 11 in data set [1] (UV-vis, read-out: pKa (NhPro/ProH+)); 2.13 ± 0.03 in data set [1] (UV-vis, read-out: pKa (NqH+)); 7.77 ± 0.04 in data set [1] (UV-vis, read-out: pKa (OH)). Also, the pKa in [1] (pH-potentiometry, read-out: pKa (NhPro/ProH+)) was more than 11; in data set [1] (pH-potentiometry, read-out: pKa (NqH+)), less than 2; in data set [1] (pH-potentiometry, read-out: pKa (OH)), 7.71 ± 0.06. Also, in data set [1] (at pH 7.4), the “fraction of the negatively charged species (O−, COO−, NhPro/ProH+)” value was 30%. Also, in data set [2], the IC50 (usually the concentration that inhibits the measured activity by half) was 5.33 ± 0.44 µM. Moreover, in data set [3], the logD is -0.02 ± 0.01.

For the molecule `c1ccc2c(c1)Nc1c(ccc3ccccc13)S2` [M627, 12H-Benzo[α]phenothiazine, reference compound], in the data set on Colo-205 cells (10 μM), the “cell death, gated events” value turned out to be 15.2%; the “early apoptosis, gated events” value turned out to be 5.27%; the “late apoptosis and necrosis, gated events” value came out at 16.8%. Besides, in the data set on Colo-205 cells (20 μM), the “cell death (Q1), gated events” value is 20.9%; the “early apoptosis (Q3), gated events” value was 21.7%; the “late apoptosis and necrosis (Q2), gated events” value is 36.2%.

For the molecule `COc1cccc2c1C(=O)c1c(O)c3c(c(O)c1C2=O)C[C@@](O)(C(=O)CO)C[C@@H]3O[C@H]1C[C@H](N)[C@H](O)[C@H](C)O1` [doxorubicin, reference compound], the IC50 was 190 ± 20 nM in [4], 50 ± 10 nM in data set [5] and 0.82 ± 0.16 µM in [2].

Take `Cc1c(C)c(C)[c-](C)c1C.O=C(O)[C@@H]1CCC[NH+]1Cc1cc(Cl)c2cccnc2c1[O-].[Cl-].[Cl-].[Rh+3]` [RhCp*–HQCl-L-Pro, [RhCp*(HQCl-L-Pro)Cl]Cl]: the “DG Displacement logKDG′, Site II” value in data set [6] is 5.6. Also, the “logK′ (AHA)” value in the data set on Ac-Ala–His–Ala-NH2 (AHA) is 4.2. Also, the “stability constant logK of the RhCp* complex” value in data set [7] was 13.41. In the data set on Ac-Phe–His–Ala-NH2 (FHA), the “FHA logKFHA′” value is 4.7 and the “reaction time with the tripeptides” value is on record as “few seconds”. Further, the “Trp-214 Quenching logKQ′, Site I” value in data set [8] was 5.5.

On to `O=C(O)[C@@H]1CCCN1Cc1cc(Cl)c2cccnc2c1O` [HQCl-L-Pro, (S)-5-chloro-7-((proline-1-yl)methyl)8-hydroxyquinoline], for which the IC50 in data set [9] was 23.4 µM. Also, in [2], the IC50 was found to be 4.57 ± 0.21 µM. For the same molecule, in [10], the “pKa (NH+Pro)” value is reported as more than 11.5, the “pKa (NqH+)” value is given as 2.36 and the “pKa (OH)” value was 7.76. The IC50 in data set [11] was 8.5 µM.

As for `Cc1ccc(C(C)C)cc1.O=C(O)[C@@H]1CCC[NH+]1Cc1cc(Cl)c2cccnc2c1[O-].[Cl-].[Cl-].[Ru+2]` [RuCym–HQCl-L-Pro, [RuCym(HQCl-L-Pro)Cl]Cl], the “DG Displacement logKDG′, Site II” value in [6] was 6.1. The “logK′ (AHA)” value in the data set on Ac-Ala–His–Ala-NH2 (AHA) is 4.4. Also, in the data set on Ac-Phe–His–Ala-NH2 (FHA), the “FHA logKFHA′” value is given as 5.1 and the “reaction time with the tripeptides” value was 3 h. In data set [8], the “Trp-214 Quenching logKQ′, Site I” value is 5.7.

As for `N.N.[Cl][Pt][Cl]` [cisplatin, reference compound], in the data set with Colo-205 cells (15 μM), the “cell death, gated events” value stood at 3.18%; the “early apoptosis, gated events” value is 1.06%; the “late apoptosis and necrosis, gated events” value was 4.70%.
